For series [1], the target named is T1, Albumin (Bos taurus, UniProt P02769). As to the kind of experiment: Covalent binding affinity to bovine serum albumin at 4.8 mM after 1 hr by combustion-LSC method in presence of DDQ relative to control. In kind it is ADME. The following applies: cattle, 4800 µM.
Series [2] addresses T1, Albumin. As to the kind of experiment: Covalent binding affinity to bovine serum albumin assessed per mol of BSA at 4.8 mM after 1 hr by combustion-LSC method. In kind it is ADME. The conditions noted are these: cattle, 4800 µM.
A short description of series [3]: Covalent binding in rabbit liver microsomal macromolecules at 60 uM after 15 mins in presence of NADPH. In kind it is ADME, Oryctolagus cuniculus. The conditions noted are these: microsomes, 0.25 h. (In general: Microsomes from liver hold many membrane-bound enzymes, among them those of drug oxidation.)
Series [4] can be described thus: Half life in rabbit liver microsomes assessed as compound auto-oxidation at 37 uM. In kind it is ADME, Oryctolagus cuniculus.
The nature of series [5]: Half life in rabbit liver homogenates with 13 ug of protein per ml assessed as compound auto-oxidation at 37 uM. In kind it is ADME, tissue-based, Oryctolagus cuniculus. The conditions noted are these: liver homogenate.
A short description of series [6]: Metabolic stability in rabbit liver homogenates with 90 ug of protein per ml assessed as compound auto-oxidation at 37 uM after 15 mins. The conditions noted are these: tissue homogenate, 0.25 h. In kind it is ADME, tissue-based, Oryctolagus cuniculus.
Series [7] is described as follows: Half life of the compound assessed as compound auto-oxidation in 0.1 M buffer at 37 uM at pH 7.4. Type of series: physicochemical.
A short description of series [8]: Half life of the compound in 0.1 M metal-free buffer assessed as compound auto-oxidation at 37 uM at pH 7.4. Type of series: physicochemical.
The test system of the next series is Brain. Description: Drug uptake in Sprague-Dawley rat brain at 6.6 mg, iv after 2 hrs. Type of series: ADME, organism-based. The following applies: in vivo.

Molecules are shown by their SMILES.

T1 sequence (P02769 whole entry): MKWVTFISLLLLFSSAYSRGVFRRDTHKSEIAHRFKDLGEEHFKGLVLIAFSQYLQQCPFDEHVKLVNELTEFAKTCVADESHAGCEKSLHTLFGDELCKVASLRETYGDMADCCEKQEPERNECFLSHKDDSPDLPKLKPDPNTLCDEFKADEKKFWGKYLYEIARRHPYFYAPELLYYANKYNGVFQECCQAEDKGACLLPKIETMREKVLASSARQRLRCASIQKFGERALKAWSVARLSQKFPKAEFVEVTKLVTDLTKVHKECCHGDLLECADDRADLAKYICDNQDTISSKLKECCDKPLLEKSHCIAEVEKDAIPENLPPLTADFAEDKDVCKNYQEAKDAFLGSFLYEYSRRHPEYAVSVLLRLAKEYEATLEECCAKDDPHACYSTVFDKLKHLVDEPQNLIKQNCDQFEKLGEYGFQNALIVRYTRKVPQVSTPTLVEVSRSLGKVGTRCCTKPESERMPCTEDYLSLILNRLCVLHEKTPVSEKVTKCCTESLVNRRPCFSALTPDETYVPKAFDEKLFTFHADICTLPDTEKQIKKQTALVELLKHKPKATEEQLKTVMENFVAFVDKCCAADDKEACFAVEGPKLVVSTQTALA

`[3H]C([3H])([3H])C(N)C([3H])([3H])c1cc(O)c(C)cc1O` (centres undefined): the “fold change (FC)” value at Albumin [1] was 2. On Albumin [2], this compound had a PB of 0.12 equiv.
On to `[3H]C([3H])([3H])C(N)C([3H])([3H])c1cc(OC)c(C)cc1OC` (centres undefined), for which the Activity in series [3] is given as 0.2%.
Usually half-life stands for how long it takes for the measured level to halve. Regarding `Cc1cc(O)c(CC(C)N)cc1O` (centres undefined), the half-life at 37 µM is 1.67 h in [4], 1.17 h in series [5], 0.167 h in series [7] and 3 h in [8]. Besides, in series [6], the Stability result is reported as “Stable”.
In the series on Brain, `[3H]C1C2=CC(=O)C(C)=CC2=NC1C` (centres undefined) returned a Drug uptake of 0.05%.

These data come from ChEMBL document CHEMBL3244019, “Chemical and biological studies of 1-(2,5-dihydroxy-4-methylphenyl)-2-aminopropane, an analogue of 6-hydroxydopamine” (J Med Chem, 1979).
